According to patent US5434150A, “Condensed 5-membered heterocyclic compounds, processes for preparing them and pharmaceutical preparations containing these compounds” (Dr. Karl Thomae GmbH, priority 1991, dated 1995):
pEC50, pIC50: −log10 of the molar value. Counter-ions that a name gives are not always drawn. Like-named read-outs stand apart in the source and are kept apart here.

Legend:
Human Thrombocytes = experiment: Fibrinogen binding to human thrombocytes (fibrinogen binding test)
Procedure: 1. Fibrinogen Binding to Human Thrombocytes The blood obtained by puncturing an antecubital vein is anticoagulated with trisodium citrate (final concentration: 13 mM) and centrifuged for 10 minutes at 170× g. The supernatant platelet-rich plasma is poured onto a Sepharose 2B column (Pharmacia) and eluted with a solution of 90 mM common salt, 14 mM trisodium citrate, 5 mM glucose and 50 mM tris(hydroxymethyl)aminomethane, adjusted to pH 7.4. The gel-filtered platelets (GFP) appearing before the plasma proteins are used for the binding experiments. 50 μl of a 60 mM calcium chloride solution, 50 μl of a 0.6 mM adenosine diphosphate solution, 100 μl of substance solution or solvent and 50 μl of fibrinogen solution (containing 3 μg of ^125 fibrinogen) are added to 750 μl of GFP and incubated for 20 minutes at ambient temperature. The non-specific binding is determined in the presence of 3 mg/ml of cold fibrinogen. 900 μl of the incubated material are carefully pipetted onto 250 μl of silicon oil (AP 38: AR 20, 1:2 v/v, Wacker Chemie) in Eppendorf tubes and centrifuged for 2 minutes at 10,000× g. The aqueous supernatant and some of the oil are drawn off, the tips of the tubes are cut off together with the platelet pellet and the quantity of bound fibrinogen is determined in a gamma counter. The concentration of substance which brings about a 50% inhibition in fibrinogen binding is determined from a series of concentrations and is given as the IC50 value. | *^125 I fibrogen was replaced by […] |e.

[1] = test system: platelet aggregation (platelet-rich plasma); experiment: Antithrombotic activity: inhibition of collagen-induced platelet aggregation in platelet-rich plasma (Born and Cross); assay type: cell-based, human (healthy volunteers); conditions: 50% change in optical density, human platelet-rich plasma, 10 min preincubation
Procedure: 2. Antithrombotic Activity Method The thrombocyte aggregation is measured using the Born and Cross method (J. Physiol. 170:397 (1964)) in platelet-rich plasma taken from healthy volunteers. To inhibit coagulation the blood is mixed with 3.14% sodium citrate in a ratio by volume of 1:10. Collagen-induced aggregation The pattern of the decrease in optical density of the platelet suspension is photometrically measured and recorded after the addition of aggregation-triggering substance. The rate of aggregation is concluded from the angle of inclination of the density curve. The point on the curve where there is maximum light transmittance is used to calculate the optical density. The amount of collagen used is as small as possible but sufficient to produce an irreversible reaction curve. Standard commercial collagen produced by Hormonchemie of Munich is used. Before the addition of the collagen the plasma is incubated for 10 minutes with the substance at […]. From the measurements obtained an EC50 is determined graphically, indicating a 50% change in the optical density in terms of the inhibition of aggregation.

[2] = 125I fibrinogen, 50% inhibition of fibrinogen binding, gel-filtered human platelets, ADP, 20 min ambient temperature, read-out: Fibrinogen binding test IC50
[3] = *: 125I fibrinogen replaced by 3H-(3S,5S)-5-[(amidino-biphenylyl)-oxymethyl]-carboxymethyl-pyrrolidinone ligand, read-out: Fibrinogen binding test IC50 (values marked *)

SMILES | pIC50 (Human Thrombocytes; [2]) | pEC50 [1] | pIC50 (Human Thrombocytes; [3])
N=C(N)c1ccc(-c2nc3cc(NC(=O)CCC(=O)O)ccc3[nH]2)cc1 [1(1), 2-(4-amidino-phenyl)-5(6)-[(2-carboxy-ethyl)-carbonyl-amino]-benzimidazole] | 6.22 | 5.18 | 
N=C(N)c1ccc(-c2nc3cc(C(=O)NCCC(=O)O)ccc3n2Cc2ccccc2)cc1 [1(62), 2-(4-amidino-phenyl)-1-benzyl-5-[(2-carboxy-ethyl)-aminocarbonyl]-benzimidazole-hydrochloride] |  |  | 7.42
N=C(N)c1ccc(OCc2nc3cc(OCC(=O)O)ccc3[nH]2)cc1 [1(135), 2-[(4-amidino-phenyl)-oxymethyl]-5(6)-carboxymethoxy-benzimidazole] | 6.10 | 5.12 | 
NCc1ccc(-c2nc3cc(C(=O)NCCC(=O)O)ccc3n2CCCN2CCSCC2)cc1 [1(137), 2-(4-aminomethyl-phenyl)-5-[(2-carboxy-ethyl)-aminocarbonyl]-1-(3-thiomorpholino-propyl)-benzimidazole] |  | 5.15 | 5.74
COC(=O)CCNC(=O)c1ccc2c(c1)nc(-c1ccc(C(=N)N)cc1)n2Cc1ccccc1 [3(48), 2-(4-amidino-phenyl)-1-benzyl-5-[(2-methoxycarbonyl-ethyl)-aminocarbonyl]-benzimidazole-hydrochloride] |  | 5.19 | 5.15
COC(=O)CCNC(=O)c1ccc2c(c1)nc(-c1ccc(C(=N)N)cc1)n2Cc1cccnc1 [3(52), 2-(4-amidino-phenyl)-5-[(2-methoxycarbonyl-ethyl)-aminocarbonyl]-1-(3-pyridylmethyl)-benzimidazole] |  | 5.02 | 5.32
CCCCCCCCCCCCCCn1c(-c2ccc(C(=N)N)cc2)nc2cc(C(=O)NCCC(=O)OC)ccc21 [3(119), 2-(4-amidino-phenyl)-5-[(2-methoxycarbonyl-ethyl)-aminocarbonyl]-1-n-tetradecyl-benzimidazole] |  | 4.41 | 5.34
COC(=O)CCNC(=O)c1ccc2c(c1)nc(-c1ccc(C(=N)N)cc1)n2CCCC(=O)O [3(121), 2-(4-amidino-phenyl)-1-(3-carboxy-propyl)-5-[(2-methoxycarbonyl-ethyl)-aminocarbonyl]-benzimidazole] |  | 4.89 | 4.82
COC(=O)CCNC(=O)c1ccc2c(c1)nc(-c1ccc(C(=N)N)cc1)n2CCCCc1ccccc1 [3(122), 2-(4-amidino-phenyl)-5-[(2-methoxycarbonyl-ethyl)-aminocarbonyl]-1-(4-phenyl-butyl)-benzimidazole] |  | 5.07 | 5.40
CNc1cc2c(cc1C(=O)NCCC(=O)OC)nc(-c1ccc(C(=N)N)cc1)n2C [3(123), 2-(4-amidino-phenyl)-5-[(2-methoxycarbonyl-ethyl)-aminocarbonyl]-1-methyl-6-methylamino-benzimidazole-hydrochloride-hydrogen acetate] |  | 4.92 | 4.60
COC(=O)CCNC(=O)c1ccc2c(c1)nc(-c1ccc(C(=N)N)cc1)n2CCC(c1ccccc1)c1ccccc1 [3(126), 2-(4-amidino-phenyl)-1-(3,3-diphenyl-propyl)-5-[(2-methoxycarbonyl-ethyl)-aminocarbonyl]-benzimidazole] | 5.66 | 5.00 | 

Further molecules by rising pEC50 [1], results first:

pIC50 (Human Thrombocytes; [2]) | pEC50 [1] | pIC50 (Human Thrombocytes; [3]) | SMILES
 | 5.42 | 5.70 | COC(=O)CCNC(=O)c1ccc2c(c1)nc(-c1ccc(C(=N)N)cc1)n2CCCN1CCSCC1 [3(59), 2-(4-amidino-phenyl)-5-[(2-methoxycarbonyl-ethyl)-aminocarbonyl]-1-(3-thiomorpholino-propyl)-benzimidazole]
 | 5.44 | 5.82 | N=C(N)c1ccc(-c2nc3cc(C(=O)NCCC(=O)O)ccc3n2CCCC(=O)O)cc1 [1(138), 2-(4-amidino-phenyl)-5-[(2-carboxy-ethyl)-aminocarbonyl]-1-(3-carboxy-propyl)-benzimidazole]
 | 5.48 | 6.14 | N=C(N)c1ccc(-c2nc3cc(C(=O)NCCC(=O)O)ccc3[nH]2)cc1 [1(2), 2-(4-amidino-phenyl)-5(6)-[(2-carboxy-ethyl)-aminocarbonyl]-benzimidazole-hydrochloride]
 | 5.55 | 4.77 | COC(=O)CCNC(=O)c1cc2nc(-c3ccc(C(=N)N)cc3)n(C)c2cc1N(C)CC(=O)OC [3(124), 2-(4-amidino-phenyl)-5-[(2-methoxycarbonyl-ethyl)-aminocarbonyl]-6-(N-methoxycarbonylmethyl-methylamino)-1-methyl-benzimidazole-hydrochloride]
 | 5.70 | 5.89 | COC(=O)CCCn1c(-c2ccc(C(=N)N)cc2)nc2cc(C(=O)NCCC(=O)OC)ccc21 [3(120), 2-(4-amidino-phenyl)-5-[(2-methoxycarbonyl-ethyl)-aminocarbonyl]-1-(3-methoxycarbonyl-propyl)-benzimidazole-hydrochloride]
 | 5.82 | 6.39 | CNc1cc2c(cc1C(=O)NCCC(=O)O)nc(-c1ccc(C(=N)N)cc1)n2C [1(139), 2-(4-amidino-phenyl)-5-[(2-carboxy-ethyl)-aminocarbonyl]-1-methyl-6-methylamino-benzimidazole]
 | 5.92 |  | COC(=O)COc1ccc2[nH]c(COc3ccc(C(=N)N)cc3)nc2c1 [Example 3, 2-[(4-Amidino-phenyl)-oxymethyl]-5(6)-methoxycarbonyl-methoxy-benzimidazole-hydrochloride]
 | 5.94 |  | N=C(N)c1ccc(-c2nc3cc(C(=O)NCCC(=O)O)ccc3n2CCCN)cc1 [1(76), 2-(4-amidino-phenyl)-1-(3-amino-propyl)-5-[(2-carboxy-ethyl)-aminocarbonyl]-benzimidazole-diacetate]
 | 5.96 | 6.64 | N=C(N)c1ccc(-c2nc3cc(C(=O)NCCC(=O)O)ccc3n2CCCN2CCS(=O)(=O)CC2)cc1 [1(75), 2-(4-amidino-phenyl)-5-[(2-carboxy-ethyl)-aminocarbonyl]-1-[3-(S,S-dioxido-thiomorpholino)-propyl]-benzimidazole]
 | 6.12 | 6.66 | CN(CC(=O)O)c1cc2c(cc1C(=O)NCCC(=O)O)nc(-c1ccc(C(=N)N)cc1)n2C [1(140), 2-(4-amidino-phenyl)-5-[(2-carboxy-ethyl)-aminocarbonyl]-6-(N-carboxymethyl-methylamino)-1-methyl-benzimidazole]
 | 6.48 | 6.55 | COC(=O)CCNC(=O)c1cnc2c(c1)nc(-c1ccc(C(=N)N)cc1)n2C [3(19), 2-(4-amidino-phenyl)-6-[(2-methoxycarbonyl-ethyl)-aminocarbonyl]-3-methyl-imidazo[4,5-b]pyridine]
 | 6.51 | 6.92 | N=C(N)c1ccc(-c2nc3cc(C(=O)NCCC(=O)O)ccc3n2CCCN2CC[S+]([O-])CC2)cc1 [1(74), 2-(4-amidino-phenyl)-5-[(2-carboxy-ethyl)-aminocarbonyl]-1-[3-(S-oxido-thiomorpholino)-propyl]-benzimidazole]
5.70 | 6.60 |  | COC(=O)CCNC(=O)c1ccc2c(c1)nc(-c1ccc(C(=N)N)cc1)n2CCc1cc(Br)c(N)c(Br)c1 [3(125), 2-(4-amidino-phenyl)-1-[2-(4-amino-3f5-dibromo-phenyl)-ethyl]-5-[(2-methoxycarbonyl-ethyl)-aminocarbonyl]-benzimidazole]
 | 6.80 | 7.31 | N=C(N)c1ccc(-c2nc3cc(C(=O)NCCC(=O)O)ccc3n2CCCN2CCSCC2)cc1 [1(73), 2-(4-amidino-phenyl)-5-[(2-carboxy-ethyl)-aminocarbonyl]-1-(3-thiomorpholino-propyl)-benzimidazole]
7.39 | 7.10 |  | Cn1c(-c2ccc(C(=N)N)cc2)[n+]([O-])c2cc(C(=O)NCCC(=O)O)ccc21 [1(79), 2-(4-amidino-phenyl)-5-[(2-carboxy-ethyl)-aminocarbonyl]-1-methyl-benzimidazole-3-oxide]
7.52 | 7.10 |  | N=C(N)c1ccc(-c2nc3cc(C(=O)NCCC(=O)O)ccc3n2CCN2CCN(Cc3ccccc3)CC2)cc1 [1(136), 2-(4-amidino-phenyl)-1-[2-(4-benzyl-piperazino)-ethyl]-5-[(2-carboxy-ethyl)-aminocarbonyl]-benzimidazole]
 | 7.15 | 8.12 | Cn1c(-c2ccc(C(=N)N)cc2)nc2c(=O)n(CCCCC(=O)O)c(=O)n(C)c21 [1(160), 8-(4-amidino-phenyl)-1-(4-carboxy-butyl)-3,9-dimethyl-xanthine]
